For orientation: inhibition means the share of the control response that was lost under treatment. A low value points to a response near the control.

This is an account of results in patent US6013632A, “Compounds and their combinations for the treatment of influenza infection” (Emory University, priority 1998, dated 2000).

The subject of series [1] is MDCK cells. The conditions noted are these: 10 mM. How it is done:
GSH was measured in MDCK cells after infection with influenza virus either without or with 10 mM GSH.

Series [2] relates to MDCK cells.
Series [3] relates to Influenza A/WSN strain. As to the kind of experiment: Virus production by HA titer in influenza-infected MDCK cells. Format: cell-based. The conditions noted are these: for Decreased virus production (HA titer): 48 hours post infection; for inhibition at 10000 µM / inhibition at 30000 µM: Influenza A virus, WSN.
Series [4] relates to MDCK cells. The source holds these as a separate data set.
For series [5], the system named is Influenza A/WSN strain. The conditions noted are these: normal human SAEC, plaque forming assay.
For the next series, the system named is viral proteins. The conditions noted are these: 35S-methionine labeling after virus infection, without or with added compound.
Series [6] has as its system Influenza A/WSN strain. The conditions noted are these: 30 mM, normal human SAEC, cultured up to 72 h.
Description: SAEC were cultured until 70% confluent. Cells were washed and inoculated with influenza A/WSN strain for 2 h. After washing to remove non-adherent virus, cells were cultured for up to 72 h in medium without or with GSH and assayed for virus production by HA titer.
Series [7] relates to MDCK cells. As to the kind of experiment: Toxicity to MDCK cells at the tested concentrations. The conditions noted are these: 10 mM and 30 mM.
For series [8], the system named is Influenza A/WSN strain. As to the kind of experiment: Plaque-forming units in supernatant of infected MDCK cells. It counts as cell-based. The conditions noted are these: 10 mM, 48 h. How it is done:
MDCK cells were cultured in 100 mm dishes until 80% confluent. Cells were washed with phosphate-buffered saline and inoculated with Influenza A/WSN strain at a multiplicity of infection of 0.05-0.1 plaque-forming units/cell in serum-free DMEM medium for 2 hours. […] At 48 hours post infection, 100 μl supernatant from each dish was assayed for virus HA titer or plaque-forming units.

Description for viral proteins: To determine whether GSH altered viral protein synthesis and processing, cells were incubated with ^35 S-methionine to label newly synthesized proteins following virus infection either without or with added GSH. Cells were washed and lysed in SDS-PAGE buffer.

On to `N[C@@H](CCC(=O)N[C@@H](CS)C(=O)NCC(=O)O)C(=O)O` [GSH, gamma-L-Glu-L-Cys-Gly], for which the “Effect on cellular GSH” value in the series on MDCK cells [1] (MDCK cells, absence of virus) is on record as “did not increase cellular GSH”. In the series with MDCK cells [1] (virus-infected MDCK cells), the “Effect on loss of cellular GSH” value was “did not prevent the loss of GSH”. Besides, in the series with MDCK cells [2] (no virus), the “Apoptosis caused by the compound alone” value is listed as “did not cause apoptosis”. In addition, the “Effect on apoptosis of virus infected cells” value in the series with MDCK cells [2] (up to 30 mM, 48 h) is recorded as “unaffected”. For the same compound, the “Decreased virus production (HA titer)” value came to 30% in the series on Influenza A/WSN strain [3] (1 mM) and 60% with Influenza A/WSN strain [3] (5 mM). In addition, the “Inhibition of virus production (HA titer)” value with Influenza A/WSN strain [3] (10 mM, 48 h post infection) turned out to be 56%; with Influenza A/WSN strain [3] (30 mM, 48 h post infection) it was 90%. Also, the “Decrease in virus production” value in the series on influenza virus (10-30 mM co-incubated with virus and MDCK cells for 2 h, washed, then 48 h) is reported as “no decrease”. The “Decrease of HA titer” value in the series on influenza virus (added after incubation of cells with virus, 48 h, MDCK cells) came out at 85%. In the series with influenza virus (virus incubated 1 h with up to 30 mM before incubation with MDCK cells), the “Effect on virus production after 48 h” value is recorded as “no effect”. Besides, the “Toxicity to the cells” value in the series on MDCK cells [4] is recorded as “not toxic”. Besides, the “Confirmation of decreased virus production by number of infectious particles” value with Influenza A/WSN strain [5] is on record as “confirmed”. Further, in the series with viral proteins, the “Patterns or amounts of labeled viral proteins” value is reported as “no detectable differences”. For the same compound, in the series on Influenza A/WSN strain [6], the “Decrease of virus production (HA titer)” value is “greater than 90%”.

As to `CC(=O)N[C@@H](CS)C(=O)O` [NAC, N-Acetyl-L-cysteine, reference compound], the inhibition at 10000 µM stood at 50% in the series on Influenza A/WSN strain [3] (10 mM, 24 h) and 62% in the series on Influenza A/WSN strain [3] (10 mM, 48 h post infection). Also, the inhibition at 30000 µM with Influenza A/WSN strain [3] (30 mM, 24 h) worked out at 75%; in the series with Influenza A/WSN strain [3] (30 mM, 48 h post infection), 95%. Besides, the Toxicity to cells entry in the series on MDCK cells [7] was “not toxic”.

As to Ascorbate-2-phosphate, the “Inhibition of virus production (HA titer)” value in the series with Influenza A/WSN strain [3] (10 mM, 48 h post infection) is on record as 37%. In the series on Influenza A/WSN strain [3] (10 or 30 mM), the “Protection against virus titer and infectious particle production” value is listed as “provided protection”. Also, the “Inhibition of plaque-forming units” value with Influenza A/WSN strain [8] is recorded as 50%.
